In assay [1] the test system is mitochondrial complex IV. The experiment in a line: Complex IV activity in brain mitochondria, wild-type mice. Particulars: following LMTM treatment. The assay is classed as in vivo. How it is done:
(§1) Wild-type and L1 mice (n=7-16 for each group) were pre-treated with rivastigmine (0.1 or 0.5 mg/kg/day) or memantine (2 or 20 mg/kg/day) or vehicle for 5 weeks by gavage. For the following 6 weeks, LMTM (5 and 15 mg/kg) or vehicle were added to this daily treatment regime, also by gavage. Animals were tested behaviourly during weeks 10 and 11 using a problem solving task in the open field water maze and then sacrificed for immunohistochemical and other tissue analyses.

Assay [2] concerns acetylcholine (ACh) levels in hippocampus. Briefly: Hippocampal ACh levels by microdialysis and HPLC, L1 mice. The assay is classed as in vivo, tau transgenic L1 mice. How it is done:
(§2) For measurement of acetylcholine (ACh) levels in hippocampus, animals (wild-type or L1) were treated with LMTM (5 mg/kg/day for 2 weeks) after prior treatment for 2 weeks with or without rivastigmine (0.5 mg/kg/day). Rivastigmine was administered subcutaneously with an Alzet minipump whereas LMTM was administered by oral gavage. Levels of ACh were measured in hippocampus using an implanted microdialysis probe and HPLC analysis of the extracellular fluid.

The conditions of assay [3]: 8 mg/day dose; split at Cmax threshold of […]; from WO2020/020751; cited from earlier work.
The target in the next assay is T1, core tau unit of the PHF (Homo sapiens, UniProt P10636).
T1 construct: three-repeat tau fragment encompassing residues 296-390 of the 2N4R tau isoform; expressed in transfected cells; host or cells: transgenic L1 mice (NMRI strain, Thy 1 promotor), brain sections of the vertical diagonal band
T1 sequence (P10636 613-707): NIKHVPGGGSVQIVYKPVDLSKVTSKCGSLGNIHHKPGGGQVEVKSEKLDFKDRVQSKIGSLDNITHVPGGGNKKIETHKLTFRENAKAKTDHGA
Briefly: Tau immunoreactivity (relative optical density) in vertical diagonal band, L1 mice. The assay is classed as in vivo, tau transgenic L1 mice. How it is done: FIG. 5. Treatment effects of LMTM alone or following chronic pretreatment with rivastigmine in tau transgenic L1 mice compared with vehicle-treated wild-type mice on levels of tau immunoreactivity (relative optical density) (A) and neurons immunoreactive for choline acetyltransferase (B) in vertical diagonal band. (*, p<0.05; **, p<0.01; ***, p<0.001).
as §1
(§3) Translating doses from mice to humans requires consideration of a number of factors. […] The higher dose of 15 mg/kg/day is generally required for LMTM to be fully effective in the L1 mouse model (Melis et al., 2015a). […] Tissue sectioned for immunohistochemistry was labelled with antibody and processed using Image J to determine protein expression densitometrically. Data are presented as Z-score transformations without units.

The subject of assay [4] is acetylcholine (ACh) levels in hippocampus. The experiment in a line: Hippocampal ACh levels by microdialysis and HPLC, wild-type mice. The assay is classed as in vivo. The following applies: LMTM after prior treatment with rivastigmine. How it is done:
as §2

The subject of a further assay is wild-type mice. The experiment in a line: Problem solving task in the open field water maze, wild-type mice. The assay is classed as in vivo. Particulars: LMTM. How it is done: as §1
Assay [5] is described as follows: ADAS-cog change after withdrawal of LMTM 8 mg/day following 18 months of treatment. The assay is classed as in vivo, human. How it is done:
Following 18 months of treatment with 8 mg/day LMTM, subjects were required to have a 1 month “washout” followed by cognitive assessment of change. The group was split according to whether they has received LMTM as an add-on to existing symptomatic therapy (AChEI, Memantine, collectively abbreviated to “Achmem”) or as a monotherapy.
The group was further analysed in terms of subjects who had received a high Cmax exposure or a low one.

Assay [6] relates to mitochondrial complex IV. The experiment in a line: Complex IV activity relative to citrate synthetase activity in brain mitochondria, L1 mice. The assay is classed as in vivo, tau transgenic L1 mice. How it is done:
as §1

The subject of assay [7] is SNARE complex proteins (SNAP25, syntaxin and VAMP2). The experiment in a line: Immunohistochemistry of SNARE complex proteins, L1 mice. The following applies: combination of LMTM with chronic rivastigmine pretreatment. The assay is classed as in vivo, tau transgenic L1 mice. How it is done:
FIG. 3. Treatment effects of LMTM alone or following chronic pretreatment with rivastigmine in tau transgenic L1 mice on levels of (A) SNARE complex proteins (SNAP25, syntaxin and VAMP2) and (B) α-synuclein measured immunohistochemically as the mean value for hippocampus, visual cortex, diagonal band and septum. (*, p<0.05; ***, p<0.001; ****, p<0.0001).
as §1, §3

The test system of assay [8] is ACh levels in the hippocampus. Briefly: Hippocampal ACh levels with scopolamine and 100 nanomolar rivastigmine in the perfusion fluid. The assay is classed as in vivo, wild type mice. How it is done:
Under the condition of cholinesterase inhibition used in these experiments (a very small amount of a cholinesterase inhibitor, 100 nanomolar rivastigmine, added to the perfusion fluid), ACh levels in the hippocampus rise, and when they rise strongly enough, they limit additional ACh release by activating pre-synaptic muscarinic receptors of the M2/M4 subtype (so-called negative feedback receptors).
In this situation, adding scopolamine (1 μM) to the perfusion fluid blocks these presynaptic receptors and, as a consequence, ACh levels rise by 3-5 fold. The fact that LMTM is not additive with rivastigmine in these experiments supports the conclusion that LMTM has a different mechanism of action from rivastigmine. In other words, although LMTM has been described as being a weak inhibitor of cholinesterases in high concentrations, the present effects seem to be unrelated to cholinesterase inhibition, because there is no additive effect with small quantities of rivastigmine.

The next assay concerns tau transgenic L1 mice. Briefly: Problem solving task in the open field water maze, L1 mice. The assay is classed as in vivo. How it is done: FIG. 7. Effect of combined administration of Memantine and LMTM on problem solving deficits in female Line 1 mice, aged 5.5 months at the beginning of the study. Memantine was administered at 20 mg/kg and LMTM at 15 mg/kg. Mice were treated with vehicle or Memantine for 5 weeks prior to Memantine plus LMTM treatment for 6 weeks, with the mice being tested in the water maze task over weeks 10 and 11.
as §1

The test system of assay [9] is glutamate release from brain synaptosomal preparations. The experiment in a line: Glutamate release from brain synaptosomal preparations, L1 mice. The assay is classed as in vivo, tau transgenic L1 mice.
A further assay concerns pathological tau. The following applies: in vivo (Congdon et al., 2012); cited from earlier work.
For another assay, the system named is cholinesterase. Particulars: reported (Pfaffendorf et al., 1997; Deiana et al., 2009); cited from earlier work.
The subject of another assay is electron transfer chain. The following applies: acting as a supplementary electron carrier in the electron transfer chain; cited from earlier work.
Setting [10] is: LMTM preceded by chronic rivastigmine.

“Also recorded” adds a separate entry of the source.

Regarding `CN(C)c1ccc2c(c1)Sc1cc(N(C)C)ccc1N2` [LMTM, Leuco-methylthioninium bis(hydromethanesulfonate)], the “complex IV activity” value in the assay with mitochondrial complex IV [1] was “did not show any increase; also recorded: no effect”. The “ACh release in the hippocampus” value in [2] (LMTM alone) is on record as “increased; also recorded: significant increases”; in assay [2] (setting [10]) it was “None of these effects were seen”. Moreover, the “treatment difference in high and low Cmax patients” value in assay [3] was −3.4 ADAS-cog units. Also, the “immunoreactivity against the core tau unit of the PHF measured by optical density” value on core tau unit of the PHF (LMTM after prior chronic treatment with rivastigmine) is reported as “persist”; on core tau unit of the PHF (LMTM alone), “reduced”. Moreover, in assay [4], the “reduction in basal ACh levels in hippocampus” value is listed as 30%. The spatial recognition memory entry in the assay on wild-type mice is listed as “not associated with improvement”. Moreover, the “ADAS-cog change following LMTM withdrawal” value was −0.98 in assay [5] (18 month LMTM 8 mg/day as add on to symptomatic therapy (AChEI, Memantine), high exposure (Cmax) group, p-value=0.0021); 0.51 in assay [5] (18 month LMTM 8 mg/day as add on to symptomatic therapy (AChEI, Memantine), lower exposure group, p-value=0.0855); 0.73 in assay [5] (18 month LMTM 8 mg/day monotherapy, high exposure (Cmax) group, p-value=0.1651); 2.29 in assay [5] (18 month LMTM 8 mg/day monotherapy, lower exposure group, p-value=0.0011). The “mitochondrial complex IV activity” value with mitochondrial complex IV [6] (LMTM alone) is given as “increased; also recorded: significant increases; also recorded: significant enhancement; also recorded: strong effect”; in the assay on mitochondrial complex IV [6] (setting [10]) it was “None of these effects were seen; also recorded: eliminated this effect”. The SNARE complex proteins entry in assay [7] is recorded as “levels below those seen in the absence of LMTM treatment”. The ACh levels entry in assay [8] (wild type mice, scopolamine experiments, combination of LMTM with rivastigmine) was “inhibitory; also recorded: not additive”. Besides, in assay [8] (wild type mice, scopolamine used to increase ACh levels, LMTM alone), the “increase in ACh levels” value was “less than that seen with rivastigmine alone”. In addition, in the assay on tau transgenic L1 mice (LMTM alone), the “behavioural changes (spatial learning)” value is “reversed deficits; also recorded: significant increases”. Further, the behavioural changes result in the assay with tau transgenic L1 mice (setting [10]) is “None of these effects were seen”. The entries for the “glutamate release from brain synaptosomal preparations” value in assay [9] (LMTM alone) and in assay [9] (setting [10]) were “increased; also recorded: significant increases; also recorded: restoration of normal glutamate release” and “None of these effects were seen”, respectively.
As to `CN(C)c1ccc2nc3ccc(=[N+](C)C)cc-3sc2c1` [MT, Methylthioninium], in the assay with pathological tau, the “concentration range increasing clearance of pathological tau via enhancement of autophagy” value was 10-20 nM. In the assay on cholinesterase, the cholinesterase inhibition entry is given as “weak cholinesterase inhibitor”. Further, in the assay with electron transfer chain, the “concentrations at which mitochondrial activity is enhanced” value is 10 to 100 nM.
Regarding `CN1[C@@H]2C[C@@H](OC(=O)[C@H](CO)c3ccccc3)C[C@H]1[C@@H]1O[C@@H]12` [scopolamine, reference compound], the “rise in ACh levels” value in assay [8] (scopolamine 1 μM added to the perfusion fluid containing 100 nanomolar rivastigmine) is recorded as 3-5 fold.

Values taken from patent US20230031369A1, “THERAPEUTIC INTERACTIONS OF LEUCOMETHYLTHIONINIUM” (WisTa Laboratories Ltd., priority 2019, published 2023).
